In general, EC50 refers to the midpoint of the concentration-response curve.

Assay [1] deals with Caenorhabditis elegans slo-1a (Caenorhabditis elegans, UniProt Q95V25).
Experimental: In Vitro Assay: Agonistic Activity at C. elegans Slo-1a
A CHO K1 cell line stably transfected with the Caenorhabditis elegans slo-1a (accession no Y51A2D.19a) was established. Cells were seeded in microtiter plates (black 384-well MTP, clear bottom) in a concentration of 10,000 cells/well in 25 μl medium and cultured for 20 to 24 hours at 37° C. and 5% CO2. The cell medium was removed, and the cells washed with Tyrode's solution. 25 μl of FMP-dye Blue-Tyrode's was added to each well and incubated at room temperature for 30 min.
(§1) For the membrane potential measurements, the prepared cell plate and substance plate were placed in the FLIPR Tetra (Molecular Devices). The baseline measurement of the fluorescence was stared for 20 sec (Exc. 510-545 nm, Emm. 565-625 nm). The cells were depolarized by addition of 25 μl of the diluted test compounds (final assay concentration of the KCl-Tyrode: 70 mM KCl, 2 mM CaCl2, 1 mM MgCl2, 0.8 mM NaH2PO4, 5 mM Glucose, 28 mM Hepes, pH 7.4, including the voltage sensitive dye). The complete measurement takes 150 s.
(§2) EC50 values were determined in triplicate utilizing compound dilution series. The data were determined at least in two independent tests. The data were proceeded by using the ActivityBase XE Runner software (IDBS) for curve fitting and calculation of the half-maximal effective concentration.
For assay [2], the target named is human Maxi K channel (BK channel), KCNMA1 (KCa1.1) and beta1 (KCNMB1) subunits (Homo sapiens, UniProt Q12791).
Experimental: In Vitro Assay: Agonistic Activity at the Human Maxi K Channel (BK Channel)
A CHO K1 cell line was stably transfected with the KCNMA1 (KCa1.1, U11058) and beta1 (KCNMB1) subunits of the human Maxi K channel (Ponte et al, Molecular Pharmacology 2012, 81(4), 567-577).
Cells were seeded in microtiter plates (black 384-well MTP, clear bottom) in a concentration of 10,000 cells/well in 25 μl medium and cultured for 20 to 24 hours at 37° C. and 5% CO2. The cell medium was removed, and the cells washed with Tyrode's solution. 25 μl of FMP-dye Blue-Tyrode's was added to each well and incubated at room temperature for 30 min.
as §1, §2
The subject of assay [3] is Oesophagostomum dentatum (nodular worm of swine), larval stage 3. Description: In vitro assay: Oesophagostomum dentatum L3 larvae, minimum effective concentration. The conditions noted are these: in Sus scrofa, read-out: MEC (minimum effective concentration) against Oesophagostomum dentatum L3, L3 larvae, 20 per well, microscopic examination, concentration at which at least one larva shows mortality, change in motility or development.
Text: (§3) In Vitro Assay: Ascaridia galli and Oesophagostomum dentatum
(§4) Ascaridia galli (intestinal roundworm of chicken), larval stage 3 (“L3”); and Oesophagostomum dentatum (nodular worm of swine), larval stages 3 and 4 (respectively “L3” and “L4”) where suspended in a nutrient medium and distributed to 96 well plates with 20 larvae per well. The wells were spiked with DMSO solutions of the compounds with declining concentration.

Another assay relates to D. immitis microfilaria. The assay can be described thus: In vitro assay: Dirofilaria immitis L1 (microfilaria) motility. The format is cell-based. The following applies: 72 h, read-out: EC50 value, Dirofilaria immitis L1, approximately 500 microfilaria, 3 days incubation, reduction in motility vs DMSO, duplicates.
The test system of a further assay is A. viteae microfilaria. The assay can be described thus: In vitro assay: Acanthocheilonema viteae L1 (microfilaria) motility. The following applies: 72 h, read-out: EC50 value, Acanthocheilonema viteae L1, approximately 500 microfilaria, 3 days incubation, reduction in motility vs DMSO, duplicates.
Assay [4] has as its system Oesophagostomum dentatum (nodular worm of swine), larval stage 4. The assay can be described thus: In vitro assay: Oesophagostomum dentatum L4 larvae, minimum effective concentration. The conditions noted are these: in Sus scrofa, read-out: MEC (minimum effective concentration) against Oesophagostomum dentatum L4, L4 larvae, 20 per well, microscopic examination, concentration at which at least one larva shows mortality, change in motility or development.
Text: as §3, §4

Each structure is given as a SMILES string.

Sequence of human Maxi K channel (BK channel), KCNMA1 (KCa1.1) and beta1 (KCNMB1) subunits (Q12791 1-1178 isoform Q12791-5): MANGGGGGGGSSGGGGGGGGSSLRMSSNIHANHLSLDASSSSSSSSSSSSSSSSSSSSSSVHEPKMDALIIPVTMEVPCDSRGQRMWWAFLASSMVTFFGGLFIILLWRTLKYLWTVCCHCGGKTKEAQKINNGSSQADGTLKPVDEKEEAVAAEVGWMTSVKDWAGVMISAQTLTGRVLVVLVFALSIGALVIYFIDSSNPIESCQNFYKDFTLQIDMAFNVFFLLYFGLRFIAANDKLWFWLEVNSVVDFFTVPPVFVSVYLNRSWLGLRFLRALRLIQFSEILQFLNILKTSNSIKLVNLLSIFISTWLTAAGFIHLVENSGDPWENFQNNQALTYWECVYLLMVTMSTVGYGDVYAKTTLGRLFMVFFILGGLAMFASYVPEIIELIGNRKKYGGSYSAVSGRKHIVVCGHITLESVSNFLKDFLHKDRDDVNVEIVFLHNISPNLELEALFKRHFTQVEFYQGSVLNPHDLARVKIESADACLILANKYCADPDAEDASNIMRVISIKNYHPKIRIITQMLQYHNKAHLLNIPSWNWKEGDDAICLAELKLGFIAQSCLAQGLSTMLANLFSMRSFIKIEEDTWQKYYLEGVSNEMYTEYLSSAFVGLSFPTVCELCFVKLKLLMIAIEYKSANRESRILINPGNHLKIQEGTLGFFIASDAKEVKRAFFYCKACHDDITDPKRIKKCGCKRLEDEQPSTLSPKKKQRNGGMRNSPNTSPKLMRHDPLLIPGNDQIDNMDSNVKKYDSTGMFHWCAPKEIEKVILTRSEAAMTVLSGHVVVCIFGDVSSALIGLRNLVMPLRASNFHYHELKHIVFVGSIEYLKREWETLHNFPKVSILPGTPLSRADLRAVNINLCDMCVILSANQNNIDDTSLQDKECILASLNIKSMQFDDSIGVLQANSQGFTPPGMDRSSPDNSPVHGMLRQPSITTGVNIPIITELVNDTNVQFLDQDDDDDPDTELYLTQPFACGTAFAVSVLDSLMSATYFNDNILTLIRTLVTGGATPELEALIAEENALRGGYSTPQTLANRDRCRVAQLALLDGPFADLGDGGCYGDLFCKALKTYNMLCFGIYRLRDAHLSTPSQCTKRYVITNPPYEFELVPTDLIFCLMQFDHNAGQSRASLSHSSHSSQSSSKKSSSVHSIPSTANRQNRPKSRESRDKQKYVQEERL
Sequence of human Maxi K channel (BK channel), KCNMA1 (KCa1.1) and beta1 (KCNMB1) subunits (Q16558 whole entry partner): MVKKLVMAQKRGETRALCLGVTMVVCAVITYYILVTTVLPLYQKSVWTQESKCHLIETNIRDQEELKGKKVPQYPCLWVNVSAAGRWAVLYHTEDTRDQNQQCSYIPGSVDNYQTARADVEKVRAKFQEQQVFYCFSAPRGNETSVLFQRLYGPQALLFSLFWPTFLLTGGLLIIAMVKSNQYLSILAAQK
Sequence of Caenorhabditis elegans slo-1a (Q95V25 whole entry): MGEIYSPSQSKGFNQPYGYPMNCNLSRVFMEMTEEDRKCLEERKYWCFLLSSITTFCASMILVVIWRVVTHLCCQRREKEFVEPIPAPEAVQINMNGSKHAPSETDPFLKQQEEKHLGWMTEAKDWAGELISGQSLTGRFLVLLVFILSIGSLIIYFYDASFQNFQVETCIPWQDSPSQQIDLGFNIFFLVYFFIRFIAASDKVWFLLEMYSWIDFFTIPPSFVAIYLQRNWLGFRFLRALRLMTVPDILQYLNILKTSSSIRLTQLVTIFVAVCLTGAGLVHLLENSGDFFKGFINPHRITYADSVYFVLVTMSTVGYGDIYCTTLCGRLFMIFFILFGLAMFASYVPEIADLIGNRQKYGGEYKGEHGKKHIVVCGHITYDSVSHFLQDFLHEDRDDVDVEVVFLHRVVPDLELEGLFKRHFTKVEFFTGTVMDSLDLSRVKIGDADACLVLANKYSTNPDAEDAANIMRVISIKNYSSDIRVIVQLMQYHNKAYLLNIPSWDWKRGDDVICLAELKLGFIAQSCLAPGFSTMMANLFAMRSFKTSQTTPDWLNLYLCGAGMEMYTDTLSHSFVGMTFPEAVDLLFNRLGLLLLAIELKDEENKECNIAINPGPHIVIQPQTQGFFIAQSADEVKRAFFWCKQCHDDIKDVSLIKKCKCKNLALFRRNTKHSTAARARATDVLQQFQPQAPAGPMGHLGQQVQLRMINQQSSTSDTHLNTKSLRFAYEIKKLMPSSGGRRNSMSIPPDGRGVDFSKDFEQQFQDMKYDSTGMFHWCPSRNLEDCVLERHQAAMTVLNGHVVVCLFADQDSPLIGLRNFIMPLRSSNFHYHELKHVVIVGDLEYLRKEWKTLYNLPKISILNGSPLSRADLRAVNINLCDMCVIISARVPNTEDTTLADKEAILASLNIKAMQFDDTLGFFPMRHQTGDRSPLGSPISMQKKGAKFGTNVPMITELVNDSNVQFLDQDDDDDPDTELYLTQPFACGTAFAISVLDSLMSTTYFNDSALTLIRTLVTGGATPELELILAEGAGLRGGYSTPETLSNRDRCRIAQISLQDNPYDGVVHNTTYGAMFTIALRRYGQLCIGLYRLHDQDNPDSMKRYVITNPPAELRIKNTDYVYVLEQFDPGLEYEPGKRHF
Experimental for A. viteae microfilaria: In Vitro Assay: Acanthocheilonema viteae L1
Approximately 500 A. viteae microfilaria were added to a microtiter plate containing a nutrient medium and the test compound in DMSO at varying concentrations. After incubation for 3 days, activity was evaluated as reduction in motility as compared to DMSO as negative control. Compounds were tested in duplicates. Based on the concentration response curves EC50 values were calculated.

As for `CN(C)c1c(C(=O)NC2CCc3ccccc32)cnc2c1ccn2-c1cc(Cl)cc(Cl)c1` (stereo not shown) [Compound 1, 1-(3,5-dichlorophenyl)-N-(2,3-dihydro-1H-inden-1-yl)-4-(dimethylamino)-1H-pyrrolo[2,3-b]pyridine-5-carboxamide], the results for the EC50 in assay [1] and in assay [2] were < 1 µM and > 30 µM, respectively.
In the same order, the values of `CN(C)c1c(C(=O)NC2CCc3ccccc32)cnc2c1ccn2-c1cccc(Cl)c1Cl` (stereo not shown) [Compound 2] are < 1 µM and > 30 µM.
In the case of `O=C(NC1CCc2ccccc21)c1cnc2c(ccn2-c2cc(Cl)cc(Cl)c2)c1N1CCOCC1` (stereo not shown) [Compound 3], the EC50 in assay [2] is > 30 µM.
As to `O=C(NC1CCc2ccccc21)c1cnc2c(ccn2-c2cccc(Cl)c2Cl)c1N1CCOCC1` (stereo not shown) [Compound 4], the EC50 is < 1 µM in assay [1] and > 30 µM in assay [2].
Turning to `CN(C)c1c(C(=O)NC2CCOc3ccccc32)cnc2c1ccn2-c1cc(Cl)cc(Cl)c1` (stereo not shown) [Compound 5], the minimal effective concentration in assay [3] was ≤ 50 µM. Also, the EC50 is < 1 µM in assay [1] and > 30 µM in assay [2].
Take `CN(C)c1c(C(=O)NC2CCOc3ccccc32)cnc2c1ccn2-c1cccc(Cl)c1Cl` (stereo not shown) [Compound 6]: the EC50 is < 1 µM in assay [1] and > 30 µM in assay [2].
Turning to `O=C(NC1CCOc2ccccc21)c1cnc2c(ccn2-c2cc(Cl)cc(Cl)c2)c1N1CCOCC1` (stereo not shown) [Compound 7], the EC50 in assay [2] was > 30 µM.
Same read-out and setting: for `CN(C)c1c(C(=O)NCc2ccccc2)cnc2c1ccn2-c1cc(Cl)cc(Cl)c1` [Compound 9] the value was > 30 µM.
In the case of `CN(C)c1c(C(=O)NCc2ccccc2)cnc2c1ccn2-c1cccc(Cl)c1Cl` [Compound 10], the EC50 in assay [1] is < 1 µM; in assay [2] it was > 30 µM.
Consider `O=C(NCc1ccccc1)c1cnc2c(ccn2-c2cc(Cl)cc(Cl)c2)c1N1CCOCC1` [Compound 11], for which, in assay [3], the minimal effective concentration is ≤ 50 µM. The EC50 in assay [2] was > 30 µM.
On to `O=C(NCc1ccccc1)c1cnc2c(ccn2-c2cccc(Cl)c2Cl)c1N1CCOCC1` [Compound 12], for which the EC50 in assay [2] was > 30 µM.
Regarding `CN(C)c1c(C(=O)N[C@H]2CCOc3ccccc32)cnc2c1ccn2-c1cccc(Cl)c1Cl` [Compound 13], the EC50 was < 1 µM in assay [1] and > 30 µM in assay [2].
In the same order, the values of `CN(C)c1c(C(=O)N[C@H]2CCCc3ccccc32)cnc2c1ccn2-c1cccc(Cl)c1Cl` [Compound 14, (S)-1-(2,3-dichlorophenyl)-4-(dimethylamino)-N-(1,2,3,4-tetrahydronaphthalen-1-yl)-1H-pyrrolo[2,3-b]pyridine-5-carboxamide] are < 1 µM and 10 to 30 µM.
Turning to `CN(C)c1c(C(=O)N[C@@H]2CCc3ccccc32)cnc2c1ccn2-c1cccc(Cl)c1Cl` [Compound 15], the EC50 in the assay with D. immitis microfilaria was < 10 µM; in assay [2] it was > 30 µM.
In the case of `CN(C)c1c(C(=O)N[C@H]2CCc3ccccc32)cnc2c1ccn2-c1cccc(Cl)c1Cl` [Compound 16], the EC50 was < 1 µM in assay [1] and > 30 µM in assay [2].
For `O=C(N[C@H]1CCCc2ccccc21)c1cnc2c(ccn2-c2cccc(Cl)c2Cl)c1N1CCOCC1` [Compound 17], in that order: < 1 µM and 10 to 30 µM.
As for `CN(C)c1c(C(=O)N[C@@H]2CCOc3ccccc32)cnc2c1ccn2-c1cccc(Cl)c1Cl` [Compound 18], the values for the EC50 (in assay [1]; in the assay on A. viteae microfilaria; in assay [2]) were < 10 µM, < 10 µM and > 30 µM, respectively. In assay [4], the minimal effective concentration was ≤ 50 µM.
On to `CN(C)c1c(C(=O)NC2CC(C)(C)Oc3ccccc32)cnc2c1ccn2-c1cccc(Cl)c1Cl` (stereo not shown) [Compound 19], for which the EC50 in assay [1] is < 10 µM; in assay [2] it was > 30 µM.
Consider `CN(C)c1c(C(=O)Nc2cccc3ccccc23)cnc2c1ccn2-c1cccc(Cl)c1Cl` [Compound 20], for which, in assay [3], the minimal effective concentration is ≤ 50 µM. The EC50 is < 10 µM with A. viteae microfilaria and > 30 µM in assay [2].
As to `O=C(N[C@H]1CCOc2ccccc21)c1cnc2c(ccn2-c2cccc(Cl)c2Cl)c1N1CCOCC1` [Compound 21], the EC50 in assay [1] was < 1 µM; in assay [2], > 30 µM.
Turning to `O=C(N[C@H]1CCc2ccccc21)c1cnc2c(ccn2-c2cccc(Cl)c2Cl)c1N1CCOCC1` [Compound 22], the concentration for a half-maximal effect (EC50) in assay [2] is > 30 µM.
On to `O=C(Nc1cccc2ccccc12)c1cnc2c(ccn2-c2cccc(Cl)c2Cl)c1N1CCOCC1` [Compound 23], for which the minimal effective concentration in assay [3] and in assay [4] was ≤ 50 µM throughout. In addition, the EC50 in assay [2] was > 30 µM.
As to `CN(C)c1c(C(=O)N[C@H]2CCOc3ccccc32)cnc2c1ccn2-c1cccc(F)c1F` [Compound 25], the results for the EC50 in assay [1] and in assay [2] were < 1 µM and > 30 µM, respectively.
In the same order, the values of `CN(C)c1c(C(=O)N[C@H]2CCOc3ccccc32)cnc2c1ccn2-c1cccc(C(F)(F)F)c1` [Compound 28] are < 1 µM and > 30 µM.
As to `Cc1cccc(-n2ccc3c(N(C)C)c(C(=O)N[C@H]4CCOc5ccccc54)cnc32)c1C` [Compound 29], the EC50 in assay [1] was < 1 µM; in assay [2], > 30 µM.
With `CN(C)c1cccc(-n2ccc3c(N(C)C)c(C(=O)N[C@H]4CCOc5ccccc54)cnc32)c1` [Compound 30], the minimal effective concentration in assay [3] was ≤ 50 µM. In addition, the concentration for a half-maximal effect (EC50) is < 1 µM in assay [1] and > 30 µM in assay [2].
For the molecule `COc1cccc(-n2ccc3c(N(C)C)c(C(=O)N[C@H]4CCOc5ccccc54)cnc32)c1` [Compound 31], the results for the EC50 in assay [1] and in assay [2] were < 1 µM and > 30 µM, respectively.
For the molecule `CN(C)c1c(C(=O)N[C@H]2CCOc3ccccc32)cnc2c1ccn2-c1cc(Cl)cc(Cl)c1` [Compound 32], in assay [2], the EC50 was > 30 µM.
The same measure, in the same setting: for `O=C(N[C@H]1CCOc2ccccc21)c1cnc2c(ccn2-c2cc(Cl)cc(Cl)c2)c1N1CCOCC1` [Compound 33] the value was > 30 µM.
`CN(C)c1c(C(=O)N[C@H]2CCCc3ccccc32)cnc2c1ccn2-c1cc(Cl)cc(Cl)c1` [Compound 34]: the EC50 in assay [1] was < 10 µM; in assay [2], > 30 µM.
Take `O=C(N[C@H]1CCCc2ccccc21)c1cnc2c(ccn2-c2cc(Cl)cc(Cl)c2)c1N1CCOCC1` [Compound 35]: the 50% effective concentration (EC50) in assay [2] is > 30 µM.
Regarding `CN(C)c1c(C(=O)NC2CC(C)(C)Oc3ccccc32)cnc2c1ccn2-c1cc(Cl)cc(Cl)c1` (stereo not shown) [Compound 38], the minimal effective concentration in assay [3] was ≤ 50 µM. Besides, the EC50 was < 10 µM in assay [1], < 10 µM in the assay on A. viteae microfilaria and 10 to 30 µM in assay [2].
On to `CC1(C)CC(NC(=O)c2cnc3c(ccn3-c3cc(Cl)cc(Cl)c3)c2N2CCOCC2)c2ccccc2O1` (stereo not shown) [Compound 39], for which the minimal effective concentration in assay [3] and in assay [4] was ≤ 50 µM in each case. Besides, the figures for the EC50 (in the assay on A. viteae microfilaria; in assay [2]) were < 10 µM and > 30 µM, respectively.
`CC1(C)CC(NC(=O)c2cnc3c(ccn3-c3cccc(Cl)c3Cl)c2N2CCOCC2)c2ccccc2O1` (stereo not shown) [Compound 40]: in assay [3], the minimal effective concentration was ≤ 50 µM. The figures for the EC50 (in assay [1]; in the assay with A. viteae microfilaria; in assay [2]) were < 10 µM, < 10 µM and > 30 µM, respectively.
`CN(C)c1c(C(=O)Nc2cccc3ccccc23)cnc2c1ccn2-c1cc(Cl)cc(Cl)c1` [Compound 41]: the half-maximal effective concentration (EC50) is < 10 µM in the assay with A. viteae microfilaria and > 30 µM in assay [2].
On to `O=C(Nc1cccc2ccccc12)c1cnc2c(ccn2-c2cc(Cl)cc(Cl)c2)c1N1CCOCC1` [Compound 42], for which the EC50 in assay [2] is > 30 µM.
Regarding `CCOc1c(C(=O)N[C@H]2CCOc3ccccc32)cnc2c1ccn2-c1cc(Cl)cc(Cl)c1` [Compound 43], the concentration giving a half-maximal response (EC50) with D. immitis microfilaria is < 10 µM; in assay [2], > 30 µM. Besides, in assay [4], the minimal effective concentration is ≤ 50 µM.
On to `CCOc1c(C(=O)N[C@H]2CCc3ccccc32)cnc2c1ccn2-c1cc(Cl)cc(Cl)c1` [Compound 44], for which, in assay [2], the EC50 is > 30 µM.
On the same count and under the same terms, for `CCOc1c(C(=O)N[C@H]2CCCc3ccccc32)cnc2c1ccn2-c1cc(Cl)cc(Cl)c1` [Compound 45] the value was > 30 µM.
On the same count and under the same terms, for `CCOc1c(C(=O)Nc2cccc3ccccc23)cnc2c1ccn2-c1cc(Cl)cc(Cl)c1` [Compound 46] the value was > 30 µM; for `COc1c(C(=O)N[C@H]2CCOc3ccccc32)cnc2c1ccn2-c1cc(Cl)cc(Cl)c1` [Compound 47], > 30 µM.
For the molecule `COc1c(C(=O)N[C@H]2CCCc3ccccc32)cnc2c1ccn2-c1cc(Cl)cc(Cl)c1` [Compound 48], the minimal effective concentration in assay [3] is ≤ 50 µM. Besides, the results for the EC50 (in the assay on A. viteae microfilaria; in assay [2]) were < 10 µM and > 30 µM, respectively.
With `COc1c(C(=O)N[C@H]2CCc3ccccc32)cnc2c1ccn2-c1cc(Cl)cc(Cl)c1` [Compound 49], the EC50 in assay [2] is > 30 µM.
Consider `COc1c(C(=O)Nc2cccc3ccccc23)cnc2c1ccn2-c1cc(Cl)cc(Cl)c1` [Compound 50], for which the EC50 with D. immitis microfilaria is < 10 µM; in assay [2] it was > 30 µM.
In the case of `O=C(N[C@H]1CCOc2ccccc21)c1cnc2c(ccn2-c2cc(Cl)cc(Cl)c2)c1O` [Compound 51], the concentration giving a half-maximal response (EC50) was < 10 µM in the assay on D. immitis microfilaria, < 10 µM in the assay on A. viteae microfilaria and > 30 µM in assay [2].
